Results published in patent US20100021903A1, “Use of Genetic Determinants in Cardiovascular Risk Assessment” (priority 2006, published 2010).

What was measured:
[1] = system: hypertensive patients with coronary artery disease; experiment: Nested case-control study within INVEST-GENES: primary outcome, logistic regression; details: for SNP effect in arm (OR, 95% CI), Death / SNP effect in arm (OR, 95% CI), MI / SNP effect in arm (OR, 95% CI), Stroke: within treatment arm; for Total Number of Events: primary outcome; for OR, effect of CACNB2 rs2357928 genotype on the primary outcome, by treatment: within CCB-treated or β-blocker-treated patients; for OR, ALOX5 promoter polymorphism variant carriers, adverse cardiovascular outcomes, By Drug Therapy: within patients on the named drug
Text: The model contained the following baseline covariates used for primary INVEST analyses: age, sex, race/ethnicity, body mass index, smoking, INVEST treatment strategy, previous myocardial infarction, previous stroke, heart failure, diabetes, renal insufficiency, baseline systolic blood pressure, diuretic use, and ACE inhibitor use, plus codon 65 and 110 genotype, and the interaction term between genotype and strategy assignment.
Relationships between single nucleotide polymorphisms (SNP) and haplotypes of arachidonate 5-lipoxygenase pathway genes and cardiovascular events were tested. […] A haplotype of ALOX5AP and SNPs was genotyped in both LTC4S and LTA4H, encoding 5-lipoxygenase activating protein, leukotriene C4 synthase and leukotriene A4 hydrolase respectively. The effects of these variants on the primary outcome using the X^2 test and logistic regression was analyzed.
Pharmacogenetic relationships were tested between a polymorphism of the LTA4H gene which encodes leukotriene A4 hydrolase and cardiovascular events based on drug-treatment. […] The LTA4H SNP rs2660845 were genotyped and analyzed the effect and interaction of this variant with antihypertensive drug treatment on the primary outcome with the X^2 test and logistic regression.
There was minimal linkage disequilibrium in CACNA1C and CACNB2. 8 SNPs in CACNA1C were examined in the case-control group.

[2] = system: hypertensive patients with coronary artery disease; experiment: INVEST-GENES cohort: primary and secondary cardiovascular outcomes (death, nonfatal MI, nonfatal stroke), Cox regression; details: for Incidence, Nonfatal MI / Incidence, Nonfatal Stroke / Incidence, Primary Outcome / Incidence, All-cause Mortality: crude incidence; for HR (95% CI) Atenolol vs. Verapamil, Nonfatal MI / HR (95% CI) Atenolol vs. Verapamil, Nonfatal Stroke / HR (95% CI) Atenolol vs. Verapamil, Primary Outcome: reduced model; for HR, KCNMB1 codon 110 (Leu110) variant allele on primary outcome, separately by treatment strategy: within patients randomized to the named drug
[3] = system: hypertensive patients with coronary artery disease; experiment: Blood pressure response to atenolol and number of antihypertensive drugs needed to reach BP control by ADRB1/ADRB2 genotype
hypertensive subjects = details: Nguyen et al. 2000; cited from earlier work
[4] = LTA4H rs2660845 G-carriers (n = 466)
[5] = primary outcome, 0 GGC (ADRB2 46G-79G-523C) copies
[6] = Patients on Atenolol (N = 2,830)
[7] = Patients on Atenolol, number of patients

CC(C)NCC(O)COc1ccc(CC(N)=O)cc1 (stereo not drawn) [atenolol]
RR: BB vs CCB by genotype, Death ([1]; CACNA1C rs1051375): 0.50 | RR: BB vs CCB by genotype, MI ([1]; CACNA1C rs1051375): 0.39 | RR: BB vs CCB by genotype, Stroke ([1]; CACNA1C rs1051375): 0.38 | SNP effect in arm (OR, 95% CI), Death ([1]; CACNA1C rs1051375): 0.64 (0.37-1.12) | SNP effect in arm (OR, 95% CI), MI ([1]; CACNA1C rs1051375): 0.38 (0.22-0.68) | SNP effect in arm (OR, 95% CI), Stroke ([1]; CACNA1C rs10848683): 0.706 (0.375, 1.329) | Total Number of Events ([1]; All subjects (n = 935)): 113 | Total Number of Events ([1]; LTA4H AA (n = 469)): 41 | Total Number of Events [1, 4]: 63 | OR, effect of CACNB2 rs2357928 genotype on the primary outcome, by treatment [1]: 0.50 | OR, ALOX5 promoter polymorphism variant carriers, adverse cardiovascular outcomes, By Drug Therapy [1]: 1.577 | Incidence, Nonfatal MI ([2]; 0 copies ADRB2 46G-79G-523C): 3.5 per 1000 patient-years | Incidence, Nonfatal Stroke ([2]; 0 copies ADRB2 46G-79G-523C): 4.2 per 1000 patient-years | Incidence, Primary Outcome ([2]; 0 copies ADRB2 46G-79G-523C): 10.8 per 1000 patient-years | HR (95% CI) Atenolol vs. Verapamil, Nonfatal MI ([2]; 0 copies ADRB2 46G-79G-523C): 0.60 (0.31-1.16) | HR (95% CI) Atenolol vs. Verapamil, Nonfatal Stroke ([2]; 0 copies ADRB2 46G-79G-523C): 0.85 (0.44-1.62) | HR (95% CI) Atenolol vs. Verapamil, Primary Outcome ([2]; 0 copies ADRB2 46G-79G-523C): 0.60 (0.41-0.87) | Incidence, Nonfatal MI ([2]; 1 copy ADRB2 46G-79G-523C): 5.8 per 1000 patient-years | Incidence, Nonfatal Stroke ([2]; 1 copy ADRB2 46G-79G-523C): 4.8 per 1000 patient-years | HR (95% CI) Atenolol vs. Verapamil, Nonfatal MI ([2]; 1 copy ADRB2 46G-79G-523C): 1.94 (0.89-4.20) | HR (95% CI) Atenolol vs. Verapamil, Nonfatal Stroke ([2]; 1 copy ADRB2 46G-79G-523C): 1.01 (0.50-2.05) | HR (95% CI) Atenolol vs. Verapamil, Primary Outcome ([2]; 1 copy ADRB2 46G-79G-523C): 1.03 (0.69-1.54) | Incidence, Nonfatal MI ([2]; 2 copies ADRB2 46G-79G-523C): 9.1 per 1000 patient-years | Incidence, Nonfatal Stroke ([2]; 2 copies ADRB2 46G-79G-523C): 5.1 per 1000 patient-years | Incidence, Primary Outcome ([2]; 2 copies ADRB2 46G-79G-523C): 22.3 per 1000 patient-years | HR (95% CI) Atenolol vs. Verapamil, Nonfatal MI ([2]; 2 copies ADRB2 46G-79G-523C): 1.53 (0.51-4.57) | HR (95% CI) Atenolol vs. Verapamil, Nonfatal Stroke ([2]; 2 copies ADRB2 46G-79G-523C): 0.79 (0.22-2.81) | HR (95% CI) Atenolol vs. Verapamil, Primary Outcome ([2]; 2 copies ADRB2 46G-79G-523C): 1.35 (0.68-2.67) | HR, primary outcome, atenolol vs. verapamil SR ([2]; carriers (1 or 2 copies) of ADRB2 46G-79G-523C haplotype): 1.10 | HR, primary outcome, atenolol vs. verapamil SR ([2]; non-carriers of ADRB2 46G-79G-523C haplotype): 0.59 | Events/1000 Patient-Years [2, 5]: 10.6 Events/1000 Patient-Years | Events/1000 Patient-Years ([2]; primary outcome, 1 GGC copy): 15.1 Events/1000 Patient-Years | Events/1000 Patient-Years ([2]; primary outcome, 2 GGC copies): 23.5 Events/1000 Patient-Years | Events/1000 Patient-Years ([2]; primary outcome, All Patients): 13.6 Events/1000 Patient-Years | HR, KCNMB1 codon 110 (Leu110) variant allele on primary outcome, separately by treatment strategy [2]: 0.84 | covariate-adjusted systolic blood pressure reduction ([3]; 1 copy GEC, 6 weeks): −7.9 mmHg | covariate-adjusted systolic blood pressure reduction ([3]; 2 copies GEC, 6 weeks): −6.7 mmHg | patients who achieved sustained blood pressure control ([3]; 619 blood pressure response study patients): 79.8% | mean systolic blood pressure after 6 weeks of treatment ([3]; 619 patients whose BP change could be attributed to atenolol, mean±SD): 139.7±18.3 mmHg | mean reduction in diastolic blood pressure ([3]; 619 patients, 6 weeks): −6.2±10.3 mmHg | mean reduction in systolic blood pressure ([3]; 619 patients, 6 weeks): −11.1±19.5 mmHg | mean diastolic blood pressure after 6 weeks of treatment ([3]; 619 patients, mean±SD): 80.4±9.9 mmHg | patients who achieved sustained blood pressure control ([3]; 2,772 patients with complete genotype data, <140/90 mmHg): 75.0% | Covariate-Adjusted Decline in blood pressure, Diastolic ([3]; ADRB2 C523A AA): −7.4 mmHg | Covariate-Adjusted Decline in blood pressure, Systolic ([3]; ADRB2 C523A AA): −15.2 mmHg | Covariate-Adjusted Decline in blood pressure, Diastolic ([3]; ADRB2 C523A CA): −4.5 mmHg | Covariate-Adjusted Decline in blood pressure, Systolic ([3]; ADRB2 C523A CA): −9.9 mmHg | Covariate-Adjusted Decline in blood pressure, Diastolic ([3]; ADRB2 C523A CC): −5.1 mmHg | Covariate-Adjusted Decline in blood pressure, Systolic ([3]; ADRB2 C523A CC): −8.2 mmHg | Covariate-Adjusted Decline in blood pressure, Diastolic ([3]; ADRB2 Gln27Glu GlnGln): −5.9 mmHg | Covariate-Adjusted Decline in blood pressure, Systolic ([3]; ADRB2 Gln27Glu GlnGln): −11.2 mmHg | Covariate-Adjusted Decline in blood pressure, Diastolic ([3]; ADRB2 Gln27Glu GlnGlu): −4.8 mmHg | Covariate-Adjusted Decline in blood pressure, Systolic ([3]; ADRB2 Gln27Glu GlnGlu): −8.8 mmHg | Covariate-Adjusted Decline in blood pressure, Diastolic ([3]; ADRB2 Gln27Glu GluGlu): −3.4 mmHg | Covariate-Adjusted Decline in blood pressure, Systolic ([3]; ADRB2 Gln27Glu GluGlu): −6.0 mmHg | Covariate-Adjusted Decline in blood pressure, Diastolic ([3]; ADRB2 Gly16Arg ArgArg): −4.9 mmHg | Covariate-Adjusted Decline in blood pressure, Systolic ([3]; ADRB2 Gly16Arg ArgArg): −8.0 mmHg | Covariate-Adjusted Decline in blood pressure, Diastolic ([3]; ADRB2 Gly16Arg GlyArg): −5.9 mmHg | Covariate-Adjusted Decline in blood pressure, Systolic ([3]; ADRB2 Gly16Arg GlyArg): −10.9 mmHg | Covariate-Adjusted Decline in blood pressure, Diastolic ([3]; ADRB2 Gly16Arg GlyGly): −4.2 mmHg | Covariate-Adjusted Decline in blood pressure, Systolic ([3]; ADRB2 Gly16Arg GlyGly): −9.0 mmHg | DBP at 12 months, mean (SD) [3, 6]: 78.3 mmHg | DBP at 24 months, mean (SD) [3, 6]: 77.7 mmHg | SBP at 12 months, mean (SD) [3, 6]: 134.0 mmHg | SBP at 24 months, mean (SD) [3, 6]: 132.3 mmHg | Percent of visits with blood pressure in control, mean (SD) ([3]; Patients on Atenolol (N = 2,830), atenolol-based strategy, SBP < 140 and DBP < 90 mmHg): 59.4 | BP in control at 12 months, No. [3, 7]: 1725 | BP in control at 24 months, No. [3, 7]: 1695 | BP in control at 12 months, (%) ([3]; Patients on Atenolol, percentage of patients at risk at 12 months): (66.0) % | BP in control at 24 months, (%) ([3]; Patients on Atenolol, percentage of patients at risk at 24 months): (69.5) % | Association of ADRB1 haplotypes with blood pressure response to atenolol ([3]; p values >0.2): not significantly associated

NS(=O)(=O)c1cc2c(cc1Cl)NCNS2(=O)=O [diuretics, hydrochlorothiazide]
HR, interaction between ADD1 carrier status and diuretics ([2]; adjusted Cox PH model, primary outcome): 1.02 | Time to primary outcome event, users vs non-users of diuretics ([2]; regardless of ADD1 variant carrier status, Kaplan Meier): not different

verapamil [verapamil SR]
SNP effect in arm (OR, 95% CI), Death ([1]; CACNA1C rs1051375): 1.28 (0.82, 2.0) | SNP effect in arm (OR, 95% CI), MI ([1]; CACNA1C rs1051375): 0.97 (0.61-1.53) | SNP effect in arm (OR, 95% CI), Stroke ([1]; CACNA1C rs1051375): 1.83 (1.13-2.97) | SNP effect in arm (OR, 95% CI), Death ([1]; CACNA1C rs10848683): 0.659 (0.365, 1.192) | SNP effect in arm (OR, 95% CI), MI ([1]; CACNA1C rs10848683): 0.733 (0.415, 1.294) | SNP effect in arm (OR, 95% CI), Stroke ([1]; CACNA1C rs10848683): 1.340 (0.767, 2.341) | OR, effect of CACNB2 rs2357928 genotype on the primary outcome, by treatment [1]: 1.00

COc1ccc(CCN(C)CCCC(C#N)(c2ccc(OC)c(OC)c2)C(C)C)cc1OC (stereo not drawn) [verapamil SR, verapamil]
systolic blood pressure response, average decrease (hypertensive subjects): 12 mmHg | Total Number of Events ([1]; All subjects (n = 935)): 137 | Total Number of Events ([1]; LTA4H AA (n = 469)): 68 | Total Number of Events [1, 4]: 60 | OR, ALOX5 promoter polymorphism variant carriers, adverse cardiovascular outcomes, By Drug Therapy [1]: 1.964 | Incidence, All-cause Mortality ([2]; 0 copies ADRB2 46G-79G-523C): 7.3 per 1000 patient-years | Incidence, Nonfatal MI ([2]; 0 copies ADRB2 46G-79G-523C): 5.9 per 1000 patient-years | Incidence, Nonfatal Stroke ([2]; 0 copies ADRB2 46G-79G-523C): 5.1 per 1000 patient-years | Incidence, Primary Outcome ([2]; 0 copies ADRB2 46G-79G-523C): 18.3 per 1000 patient-years | Incidence, All-cause Mortality ([2]; 1 copy ADRB2 46G-79G-523C): 7.0 per 1000 patient-years | Incidence, Nonfatal MI ([2]; 1 copy ADRB2 46G-79G-523C): 2.9 per 1000 patient-years | Incidence, Nonfatal Stroke ([2]; 1 copy ADRB2 46G-79G-523C): 4.7 per 1000 patient-years | Incidence, Primary Outcome ([2]; 1 copy ADRB2 46G-79G-523C): 14.5 per 1000 patient-years | Incidence, All-cause Mortality ([2]; 2 copies ADRB2 46G-79G-523C): 4.2 per 1000 patient-years | Incidence, Nonfatal MI ([2]; 2 copies ADRB2 46G-79G-523C): 6.3 per 1000 patient-years | Incidence, Nonfatal Stroke ([2]; 2 copies ADRB2 46G-79G-523C): 6.3 per 1000 patient-years | Incidence, Primary Outcome ([2]; 2 copies ADRB2 46G-79G-523C): 17.0 per 1000 patient-years | Modification of the adverse effect of ADRB2 46G-79C-523C haplotype on primary outcome ([2]; Example 4): Neither atenolol nor verapamil SR modified the adverse effect of this haplotype | Systolic and diastolic blood pressure control ([2]; patients treated with verapamil vs atenolol, FIG. 23): did not differ | Events/1000 Patient-Years [2, 5]: 18.0 Events/1000 Patient-Years | Events/1000 Patient-Years ([2]; primary outcome, 1 GGC copy): 14.4 Events/1000 Patient-Years | Events/1000 Patient-Years ([2]; primary outcome, 2 GGC copies): 17.1 Events/1000 Patient-Years | Events/1000 Patient-Years ([2]; primary outcome, All Patients): 16.4 Events/1000 Patient-Years | HR, KCNMB1 codon 110 (Leu110) variant allele on primary outcome, separately by treatment strategy [2]: 0.55 | HRadj, ADRB1 49S-389R haplotype on mortality, by treatment ([2]; within patients treated with the named drug): 8.00
